# Structures can show the parent of a compound that is named as a salt. Where two headings read alike, the source gives them in different places.
# Tests used:
# [1] = test system: PC3 (prostate adenocarcinoma); assay: In vitro antiproliferation assay, PC3; format: cell-based
# [2] = test system: K562 (bone marrow chronic myelogenous leukemia); assay: In vitro antiproliferation assay, K562; format: cell-based
# [3] = test system: ASPC-1 (pancreatic adenocarcinoma); assay: In vitro antiproliferation assay, ASPC-1; format: cell-based; conditions: ASPC1
# H7299 = assay: In vitro antiproliferation assay, H7299; format: cell-based
# [4] = test system: THP-1 (monocyte acute monocytic leukemia); assay: In vitro antiproliferation assay, THP-1; format: cell-based
# [5] = test system: SW620 (colorectal adenocarcinoma); assay: In vitro antiproliferation assay, SW620; format: cell-based
# U2OS (bone osteosarcoma) = assay: In vitro antiproliferation assay, U2OS; format: cell-based; conditions: U20S
# [6] = test system: L1210 (mouse lymphocytic leukemia); assay: In vitro antiproliferation assay, L1210; format: cell-based
# A549 (lung carcinoma) = assay: In vitro antiproliferation assay, A549; format: cell-based
# [7] = test system: DU145 (prostate carcinoma); assay: In vitro antiproliferation assay, DU145; format: cell-based
# [8] = test system: H1299 (non-small cell lung carcinoma); assay: In vitro antiproliferation assay, H1299; format: cell-based
# [9] = test system: variety of different tumor cell lines; assay: In vitro antiproliferation assays, summary over the tumor cell lines tested; format: cell-based; conditions: for IC50's against tumor cell lines, tested as isolated stereoisomers: general range over the cell lines
# Excerpt: The cis racemate of structural formula (IIa) can be referred to as the 2-exo-3-exo racemate, and includes the (1R,2R,3S,4S) and (1S,2S,3R,4R) diastereomers of structural formulae (Ia) and (Ib), respectively. The cis racemate of structural formula (IIb) can be referred to as the 2-endo-3-endo racemate, and includes the (1R,2S,3R,4S) and (1S,2R,3S,4R) diastereomers of structural formulae (Ic) and (Id), respectively. […] Moreover, it has been discovered that the (1R,2R,3S,4S) diastereomer of racemate r1 is largely responsible for the potency of the racemate r1.
# [10] = Pharmacokinetics in monkeys, plasma concentration over time; format: in vivo
# Experimental: Compound 60a was administered to monkeys intravenously (1 mg/kg in saline) and orally (5 mg/kg in saline) and the plasma concentrations monitored over time.
# [11] = test system: SU86.86 (pancreatic carcinoma); assay: In vitro antiproliferation assay, SU86.86; format: cell-based; conditions: Homo sapiens, SU.86.86
# [12] = test system: SK-OV-3 (ovarian adenocarcinoma); assay: In vitro antiproliferation assay, SK-OV-3; format: cell-based; conditions: Homo sapiens, SKOV3
# Colo205 tumors = test system: Colo205 tumors
# Experimental: (§1) Compound 60a.2HCl, was tested for its ability to shrink A549 and Colo205 tumors in a standard xenograft therapeutic model in SCID mice, and Colo205 and MiaPaCa tumors in a standard xenograph regression model in SCID mice. When palpable tumors appeared and were of a preselected volume (approx. 100 mm3 for treatment model; >300 mm3 for regression model), the mice were administered test compounds in the amounts and according to the dosing regimens specified in TABLE 3 (treatment protocol) and TABLE 4 (regression protocol), below.
# A549 tumors = conditions: A549, treatment model, 5 days on/2 days off, 10 mg/kg qd, p>0.05
# Experimental: as §1
# MiaPaCa tumors = conditions: regression model, 10 mg/kg/day daily (3 cycles), oral or i.p.
# Experimental: as §1
# [13] = test system: H460 (large cell lung carcinoma); conditions: read-out: In Vitro IC50
# Experimental: Compounds 60r1, 60r2, 60r1.2HCl, 60a, 60b and 60a.HCl were tested against a variety of different types of tumor cells for their ability to inhibit proliferation using standard in vitro antiproliferation assays.
# Aurora kinase-B = target: T1, Aurora kinase-B (Homo sapiens, UniProt Q96GD4); assay: Functional cellular assay of Aurora kinase-B, phosphorylation of histone H3 in A549 cells; format: cell-based
# T1 construct: endogenous in cells; host or cells: A549 cells
# T1 sequence (Q96GD4 whole entry): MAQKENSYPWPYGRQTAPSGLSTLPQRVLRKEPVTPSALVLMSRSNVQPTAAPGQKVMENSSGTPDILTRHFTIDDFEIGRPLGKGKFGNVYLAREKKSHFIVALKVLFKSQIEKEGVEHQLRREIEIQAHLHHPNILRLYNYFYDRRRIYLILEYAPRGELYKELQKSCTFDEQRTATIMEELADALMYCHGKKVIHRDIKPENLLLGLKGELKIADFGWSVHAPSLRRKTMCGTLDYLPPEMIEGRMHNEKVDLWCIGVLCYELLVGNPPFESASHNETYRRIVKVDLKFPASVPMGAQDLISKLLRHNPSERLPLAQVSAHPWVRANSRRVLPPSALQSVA
# Experimental: Compounds 60a and 60b were tested for their ability to inhibit Aurora kinase-B in a functional cellular assay involving phosphorylation of its substrate, histone H3. For the assay, A549 cells were seeded into the wells of a microtiter tray (5000 cells/well in 100 μl F12K media) late in the afternoon on Day 1. The cells were grown overnight (37° C., 5% CO2). On Day 2, 50 μl nocodazole (1 μM in media) was added to each well, giving a final concentration of 333 nM. Cells were grown for an additional 18 hrs under the same conditions.
# On Day 3, 50 μl aliguots of varying concentrations of test compound were added to the wells. […] The cells were then stained with a secondary antibody labeled with a fluorescent dye (secondary antibody donkey anti-mouse AlexFluor 488 (Invitrogen Molecular Probes; 1:2000) and DAPI (1:15,000 of 1 mg/ml stock) for 1 hr at room temperature, washed three times with DPBS (200 μl/well) and stored under DPBS (100 μl/well) at 4° C. until ready for analysis.
# A Zeiss Axiovert S100 inverted fluorescent microscope with a Plan-NEOFLUAR 10× objective, a Hamamatsu Lightningcure 200 Mercury-Xenon light source and an Omega Optical XF57 quad filter was used for all data collection. […] Images were captured and analyzed in 12-bit format using segmentation and morphological routines contained in the Image Pro software package. […]
compound,measurement,setting,value
"Cc1cc(Nc2ncc(F)c(NC3C4C=CC(C4)C3C(N)=O)n2)ccc1N1CCN(C)CC1 (racemic) [Compound 60r1, 2-exo-3-exo racemic N4-(3-aminocarbonylbicyclo[2.2.1]hept-5-ene-2-yl)-5-fluoro-N2-[3-methyl-4-(4-methylpiperazin-1-yl)phenyl]-2,4-pyrimidinediamine]",IC50,[1],0.01 to 0.02 µM
same,IC50,[2],0.02 to 1 µM
same,IC50,[3],0.01 to 0.02 µM
same,IC50,H7299,0.01 to 0.02 µM
same,IC50,[4],0.02 to 1 µM
same,IC50,[5],0.02 to 1 µM
same,IC50,U2OS (bone osteosarcoma),0.01 to 0.02 µM
same,IC50,[6],0.02 to 1 µM
same,IC50,A549 (lung carcinoma),0.01 to 0.02 µM
same,IC50,[7],0.01 to 0.02 µM
"Cc1cc(Nc2ncc(F)c(NC3C4C=CC(C4)C3C(N)=O)n2)ccc1N1CCN(C)CC1 (racemic) [Compound 60r1.2HCl, 2-exo-3-exo racemic N4-(3-aminocarbonylbicyclo[2.2.1.]hept-5-ene-2-yl)-5-fluoro-N2-[3-methyl-4-(4-methylpiperazin-1-yl)phenyl]-2,4-pyrimidinediamine bis hydrogen chloride salt]",IC50,H7299; listed as 60r1-2HCl,0.02 to 1 µM
same,IC50,[8],0.02 to 1 µM
same,IC50,A549 (lung carcinoma); listed as 60r1-2HCl,0.02 to 1 µM
"Cc1cc(Nc2ncc(F)c(N[C@H]3[C@@H](C(N)=O)[C@@H]4C=C[C@H]3C4)n2)ccc1N1CCN(C)CC1 [Compound 60a, (1R,2R,3S,4S)—N-4-(3-aminocarbonylbicyclo[2.2.1]hept-5-ene-2-yl)-5-fluoro-N2-[3-methyl-4-(4-methylpiperazin-1-yl)phenyl]-2,4-pyrimidinediamine]","IC50's against tumor cell lines, tested as isolated stereoisomers",[9],nanomolar range
same,"potency relative to the (1S,2S,3R,4R) enantiomer","[9]; in general, same cell lines",~1000 fold
same,IC50,[2]; Homo sapiens,0.02 to 1 µM
same,time plasma concentration remained above the IC50 of 7 nM,"[10]; intravenously, 1 mg/kg in saline",11 h
same,time plasma concentration was maintained above the IC50,"[10]; orally, 5 mg/kg in saline",over 20 hrs
same,IC50,[11],0.01 to 0.02 µM
same,IC50,H7299,0.01 to 0.02 µM
same,IC50,[4]; Homo sapiens,0.02 to 1 µM
same,IC50,[12],0.01 to 0.02 µM
same,IC50,"[5]; Homo sapiens, SW-620",0.01 to 0.02 µM
same,IC50,[6]; Mus musculus,0.01 to 0.02 µM
same,IC50,"[7]; Homo sapiens, DU-145",0.01 to 0.02 µM
"Cc1cc(Nc2ncc(F)c(N[C@H]3[C@@H](C(N)=O)[C@@H]4C=C[C@H]3C4)n2)ccc1N1CCN(C)CC1.Cl.Cl [Compound 60a.2HCl, (1R,2R,3S,4S)—N-4-(3-aminocarbonylbicyclo[2.2.1]hept-5-ene-2-yl)-5-fluoro-N2-[3-methyl-4-(4-methylpiperazin-1-yl)phenyl]-2,4-pyrimidinediamine bis hydrogen chloride salt]",tumor growth rate,"Colo205 tumors; Colo205, regression model, 10 mg/kg/day oral daily (13 days)",Significant reductions in tumor growth rate
same,tumor growth rate compared to vehicle control,"Colo205 tumors; Colo205, treatment model, daily and pulsed dosing regimens, all dosage levels tested (2 and 10 mg/kg/day oral)",significant (p<0.050) reductions in tumor growth rate
same,reduction in mean tumor volume,A549 tumors,~40%
same,tumor growth rate,MiaPaCa tumors,Significant reductions in tumor growth rate
same,IC50,H7299,0.02 to 1 µM
same,IC50,[8],0.02 to 1 µM
same,IC50,[13],< 0.01 µM
same,IC50,A549 (lung carcinoma),< 0.01 µM
same,IC50,[7],0.02 to 1 µM
"Cc1cc(Nc2ncc(F)c(N[C@@H]3[C@H](C(N)=O)[C@H]4C=C[C@@H]3C4)n2)ccc1N1CCN(C)CC1 [Compound 60b, (1S,2S,3R,4R)—N-4-(3-Aminocarbonylbicyclo[2.2.1]hept-5-en-2-yl)-5-fluoro-N2-[3-methyl-(4-methylpiperazin-1-yl)phenyl]-2,4-pyrimidinediamine]","IC50's against tumor cell lines, tested as isolated stereoisomers",[9],micromolar range
same,IC50 of 60b relative to its enantiomer 60a,Aurora kinase-B,approx. 350 times greater
same,IC50,[4],0.02 to 1 µM
same,IC50,U2OS (bone osteosarcoma),0.02 to 1 µM
same,IC50,[7],0.02 to 1 µM

# From patent US8044054B2, “Stereoisomerically enriched 3-aminocarbonyl bicycloheptene pyrimidinediamine compounds and their uses” (Rigel Pharmaceuticals, Inc., priority 2004, dated 2011)
